What is called IC50 is the midpoint of a concentration-inhibition curve. For orientation: inhibition means the relative decrease from the control value, in per cent.

The source of these data is paper PMC12797155 (ACS Pharmacology & Translational Science, 2025).

“And” between values parts separate entries of the source, which are not always exact repeats. Equal entries are not always repeated.

Assay [1] has as its target T1, thrombin (Homo sapiens, UniProt P00734).
T1 construct: Alpha-thrombin was ordered from Enzyme Research Laboratories; purchased Enzyme Research Laboratories (South Bend, IN)
Kind of assay: Michaelis-Menten enzyme kinetic analysis of thrombin in the presence of PAR4 antagonists. The assay is classed as biochemical. Details: unit not given here. As to conditions: thrombin in the presence of PAR4 antagonist. How it is done:
(§1) Chromogenic substrate, S-2238, was ordered from DiaPharma (West Chester, OH). Alpha-thrombin was ordered from Enzyme Research Laboratories (South Bend, IN). White, round, clear-bottom 96-well plates were used to run the screen. The plate was read using a BioTek Neo plate reader every minute for 60 min at a wavelength of 405 nm. The substrate control wells were subtracted from the raw counts, and the data was normalized to the thrombin enzyme control wells as a percentage. The percentages were graphed in GraphPad Prism.
To also characterize what type of inhibition was occurring with these compounds, we performed Michaelis–Menten enzyme kinetic analysis. […] This is not a surprising finding, as thrombin is believed to interact with PAR4 only at the active cleft of thrombin. PAR4 lacks the hirudin-like binding domain that PAR1 has, which enables PAR1 to have a higher affinity to thrombin.
2 Thrombin inhibition characterization of PAR4 antagonists. A) Michaelis–Menten plot depicting thrombin enzymatic activity in the presence of various PAR4 antagonists. B) Lineweaver–Burk plot of the Michaelis–Menten plot.

The target in assay [2] is T2, PAR4 (Homo sapiens, UniProt Q96RI0).
T2 sequence (Q96RI0 48-385): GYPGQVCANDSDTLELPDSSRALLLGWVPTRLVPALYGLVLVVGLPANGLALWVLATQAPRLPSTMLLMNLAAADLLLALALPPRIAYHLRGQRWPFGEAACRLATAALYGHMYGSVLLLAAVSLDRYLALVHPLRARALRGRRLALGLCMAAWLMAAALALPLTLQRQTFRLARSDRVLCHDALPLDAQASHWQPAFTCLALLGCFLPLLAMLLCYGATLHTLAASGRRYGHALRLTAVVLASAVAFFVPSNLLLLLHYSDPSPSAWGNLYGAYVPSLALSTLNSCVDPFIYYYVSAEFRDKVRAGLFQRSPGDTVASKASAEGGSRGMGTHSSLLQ
Kind of assay: Human platelet flow cytometry assay, PAR4 activation (α-thrombin + vorapaxar). The assay is classed as cell-based. As to conditions: human platelets, α-thrombin + vorapaxar; N = 3. The source says: (§2) Same as described previously.
(§3) In the flow cytometry experiments, thrombin activates PAR4 on human platelets. […] In the flow cytometry assay, human platelets are stimulated with thrombin in the presence of either a PAR4 antagonist (BMS-3) or a PAR1 antagonist (Vorapaxar). This determines the IC50 of the test compound against PAR1 and PAR4 activation.
On the technique in general: Flow cytometry measures light scatter and fluorescence of single cells or particles in a stream.

Assay [3] concerns PAR4. The assay is described as above. It counts as cell-based. As to conditions: alpha-thrombin flow cytometry assay, human platelets; PAR4 vs PAR1.
Source text: as §2, §3

For assay [4], the target named is T3, alpha thrombin (Homo sapiens, UniProt P00734).
T3 construct: Alpha-thrombin was ordered from Enzyme Research Laboratories; purchased Enzyme Research Laboratories (South Bend, IN)
In words: Chromogenic thrombin activity assay with substrate S-2238. It counts as biochemical. As to conditions: for inhibition at 0.5 µM: read-out: inhibition of thrombin; for IC50: thrombin activity assay, N = 3, read-out: IC50 against thrombin (S-2238 Thrombin Kinetic Assay). Here is the method:
as §1, with “Prism. To investigate thrombin inhibition, we utilized a chromogenic assay with a thrombin substrate, S-2238. Thrombin activity was measured by the production of a visible color change to substrate S-2238. Each assay run included a substrate control, where just substrate was added to the well without thrombin enzyme, an enzyme control (EC), which consisted of thrombin without any inhibitor present, and an inhibitor control (IC), which contained a known thrombin inhibitor, Argatroban.” for “Prism.”

As for `COc1cccc(-c2nc(NC(=O)c3nn(-c4ccccc4)c4c3CCCC4)n[nH]2)c1` [Compound 32], the Vmax in assay [1] came out at 0.09616.

In the case of `CC1CNc2c(cccc2S(=O)(=O)N[C@@H](CCCNC(=N)N)C(=O)N2CC[C@@H](C)C[C@@H]2C(=O)O)C1` (stereo partly drawn) [Argatroban, reference compound], the concentration for half-maximal inhibition (IC50) in assay [2] came to 65.2 nM. For the same molecule, in assay [3], the “preference for PAR4 over PAR1” value was “no preference for PAR4 over PAR1”.

In the case of `Cc1cc(C(=O)Nc2nc(-c3cccc(OC(F)F)c3)n[nH]2)nn1-c1ccccc1` [Compound 9], the Vmax in assay [1] was determined as 0.0849.

For Hirugen [reference compound], the “preference for PAR4 over PAR1” value in assay [3] was “no preference for PAR4 over PAR1”.

For `Cn1nc(C(=O)Nc2n[nH]c(-c3c(F)cccc3F)n2)cc1C1CC1` [Compound 12], the half-inhibitory concentration (IC50) in assay [2] was about 149 nM. For the same molecule, in assay [4], the inhibition at 0.5 µM was about 70%; the IC50 was ~71 nM and 70.6 nM.

For `Cc1nc(NC(=O)c2cc(C(=O)OC(C)(C)C)n(-c3ccccc3)n2)n[nH]1` [Compound 7], the IC50 in assay [2] came out at 6600 nM. Moreover, in assay [1], the Vmax came out at 0.08588.

With `O=C(Nc1n[nH]c(-c2ccc(F)cc2F)n1)c1nn(-c2ccccc2)c2c1CCCC2` [Compound 31], the IC50 in assay [2] was about 160 nM. Further, the Vmax in assay [1] was 0.1010. For the same molecule, in assay [4], the inhibition at 0.5 µM is about 70%; the IC50 was ~1000 nM and 1090 nM.

Take `COc1ccc2cc(-c3cn4nc(SC)sc4n3)oc2c1` [Compound 6PMJ]: the Vmax in assay [1] came to 0.08856.
